Source: patent US10189839B2, “Tricyclic imidazole compounds as inhibitors of tryptophan hydroxylase” (ACTELION PHARMACEUTICALS LTD, priority 2013, dated 2019)

Molecular target: T1, full length human TPH1 (Homo sapiens, UniProt P17752)
T1 construct: To generate the enzyme, full length human TPH1 is cloned into the plasmid pET20b(+); made in house; host or cells: E. coli
T1 sequence (P17752 1-444): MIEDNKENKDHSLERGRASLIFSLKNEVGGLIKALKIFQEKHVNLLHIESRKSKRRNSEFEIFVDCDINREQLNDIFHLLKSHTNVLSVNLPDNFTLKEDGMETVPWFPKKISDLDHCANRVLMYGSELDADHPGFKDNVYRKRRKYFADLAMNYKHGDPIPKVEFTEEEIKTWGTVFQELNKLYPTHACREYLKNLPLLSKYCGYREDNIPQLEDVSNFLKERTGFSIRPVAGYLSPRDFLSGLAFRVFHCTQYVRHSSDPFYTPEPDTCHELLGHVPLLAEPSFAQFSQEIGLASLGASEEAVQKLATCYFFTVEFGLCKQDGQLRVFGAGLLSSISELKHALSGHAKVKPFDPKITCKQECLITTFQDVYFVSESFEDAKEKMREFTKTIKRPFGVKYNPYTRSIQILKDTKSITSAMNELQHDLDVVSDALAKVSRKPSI
Assay: Biochemical in vitro assay using fluorescence readout (TPH1 enzyme activity)
Method in brief: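 E. coli-expressed full-length human TPH1 (40-80 nM), affinity- and size-exclusion-purified, incubated 60 min at 15° C. in 0.1M Tris-HCl pH 7.6 with 1 mM DTT, 0.2 mg/ml catalase, 100 μM 6-methyltetrahydropterine and 40 μM L-tryptophan. 5-Hydroxy-L-tryptophan read by fluorescence (ex 300/em 540 nm) after HClO4 quench; IC50 versus vehicle, mean where repeated.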

[1] = Table 1, mean where determined several times

Structure (SMILES) | IC50 [1] [nM] | IC50 (Table 2) [nM]
O=C(COc1ccc(N2CCOCC2)cc1Cl)N1CCc2nc3n(c2C1c1ccc(C2CC2)cc1F)CCN(CC1CC1)C3 (centres unmarked) [Example 5.2.7, 2-(2-chloro-4-morpholinophenoxy)-1-(1-(4-cyclopropyl-2-fluorophenyl)-7-(cyclopropylmethyl)-3,4,6,7,8,9-hexahydropyrido[4′,3′:4,5]imidazo[1,2-a]pyrazin-2(1H)-yl)ethanone] | 8 | 
CC(=O)N1CCn2c(nc3c2C(c2ccc(C4CC4)cc2F)N(C(=O)COc2ccc(N4CCOCC4)nc2Cl)CC3)C1 (centres unmarked) [Example 5.2.8, 1-(7-acetyl-1-(4-cyclopropyl-2-fluorophenyl)-3,4,6,7,8,9-hexahydropyrido[4′,3′:4,5]imidazo[1,2-a]pyrazin-2(1H)-yl)-2-((2-chloro-6-morpholinopyridin-3-yl)oxy)ethanone] | 5 | 
N#Cc1ccc(OCC(=O)N2CCc3nc4n(c3C2c2ccc(C3CC3)cc2F)CCNC4)c(Cl)c1 (centres unmarked) [Example 5.2.9, 3-chloro-4-(2-(1-(4-cyclopropyl-2-fluorophenyl)-3,4,6,7,8,9-hexahydropyrido[4′,3′:4,5]imidazo[1,2-a]pyrazin-2(1H)-yl)-2-oxoethoxy)benzonitrile] | 92 | 
O=C(COc1cccnc1C(F)(F)F)N1CCc2nc3n(c2C1c1ccc(C2CC2)cc1F)CCNC3 (centres unmarked) [Example 5.2.10, 1-(1-(4-cyclopropyl-2-fluorophenyl)-3,4,6,7,8,9-hexahydropyrido[4′,3′:4,5]imidazo[1,2-a]pyrazin-2(1H)-yl)-2-((2-(trifluoromethyl)pyridin-3-yl)oxy)ethanone] | 50 | 
N#Cc1ccc(OCC(=O)N2CCc3nc4n(c3C2c2ccc(C3CC3)cc2F)CCNC4)c(Cl)n1 (centres unmarked) [Example 5.2.11, 6-chloro-5-(2-(1-(4-cyclopropyl-2-fluorophenyl)-3,4,6,7,8,9-hexahydropyrido[4′,3′:4,5]imidazo[1,2-a]pyrazin-2(1H)-yl)-2-oxoethoxy)picolinonitrile] | 108 | 
CC(=O)N1CCn2c(nc3c2C(c2ccc(C4CC4)cc2F)N(C(=O)COc2ccc(N4CC(F)(F)C4)nc2Cl)CC3)C1 (centres unmarked) [Example 5.2.12, 1-(7-acetyl-1-(4-cyclopropyl-2-fluorophenyl)-3,4,6,7,8,9-hexahydropyrido[4′,3′:4,5]imidazo[1,2-a]pyrazin-2(1H)-yl)-2-((2-chloro-6-(3,3-difluoroazetidin-1-yl)pyridin-3-yl)oxy)ethanone] | 6 | 
CC(=O)N1CCn2c(nc3c2C(c2ccc(C4CC4)cc2F)N(C(=O)COc2ccc(C(=O)N(C)C)nc2Cl)CC3)C1 (centres unmarked) [Example 5.2.13, 5-(2-(7-acetyl-1-(4-cyclopropyl-2-fluorophenyl)-3,4,6,7,8,9-hexahydropyrido[4′,3′:4,5]imidazo[1,2-a]pyrazin-2(1H)-yl)-2-oxoethoxy)-6-chloro-N,N-dimethylpicolinamide] | 4 | 
CC(=O)N1CCn2c(nc3c2C(c2ccc(C4CC4)cc2F)N(C(=O)COc2cccnc2Cl)CC3)C1 (centres unmarked) [Example 5.2.14, 1-(7-acetyl-1-(4-cyclopropyl-2-fluorophenyl)-3,4,6,7,8,9-hexahydropyrido[4′,3′:4,5]imidazo[1,2-a]pyrazin-2(1H)-yl)-2-((2-chloropyridin-3-yl)oxy)ethanone] | 28 | 
CC(=O)N1CCn2c(nc3c2C(c2ccc(C4CC4)cc2F)N(C(=O)COc2cccnc2C(F)(F)F)CC3)C1 (centres unmarked) [Example 5.2.15, 1-(7-acetyl-1-(4-cyclopropyl-2-fluorophenyl)-3,4,6,7,8,9-hexahydropyrido[4′,3′:4,5]imidazo[1,2-a]pyrazin-2(1H)-yl)-2-((2-(trifluoromethyl)pyridin-3-yl)oxy)ethanone] | 10 | 
CC(=O)N1CCn2c(nc3c2C(c2ccc(C4CC4)cc2F)N(C(=O)COc2cc(F)cnc2Cl)CC3)C1 (centres unmarked) [Example 5.2.16, 1-(7-acetyl-1-(4-cyclopropyl-2-fluorophenyl)-3,4,6,7,8,9-hexahydropyrido[4′,3′:4,5]imidazo[1,2-a]pyrazin-2(1H)-yl)-2-((2-chloro-5-fluoropyridin-3-yl)oxy)ethanone] | 25 | 
CCc1nc(C)ccc1OCC(=O)N1CCc2nc3n(c2C1c1ccc(C2CC2)cc1F)CCN(C(C)=O)C3 (centres unmarked) [Example 5.2.17, 1-(7-acetyl-1-(4-cyclopropyl-2-fluorophenyl)-3,4,6,7,8,9-hexahydropyrido[4′,3′:4,5]imidazo[1,2-a]pyrazin-2(1H)-yl)-2-((2-ethyl-6-methylpyridin-3-yl)oxy)ethanone] | 11 | 
CN(C)C(=O)c1csc(C2c3c(nc4n3CCNC4)CCN2C(=O)COc2ccc(N3CCOCC3)nc2Cl)c1 (centres unmarked) [Example 5.3.1, 5-(2-(2-((2-Chloro-6-morpholinopyridin-3-yl)oxy)acetyl)-1,2,3,4,6,7,8,9-octahydropyrido[4′,3′:4,5]imidazo[1,2-a]pyrazin-1-yl)-N,N-dimethylthiophene-3-carboxamide] |  | 94
CC(=O)N1CCn2c(nc3c2C(c2cc(C(=O)N(C)C)cs2)N(C(=O)COc2ccc(N4CCOCC4)nc2Cl)CC3)C1 (centres unmarked) [Example 5.3.2, 5-(7-Acetyl-2-(2-((2-chloro-6-morpholinopyridin-3-yl)oxy)acetyl)-1,2,3,4,6,7,8,9-octahydropyrido[4′,3′:4,5]imidazo[1,2-a]pyrazin-1-yl)-N,N-dimethylthiophene-3-carboxamide] |  | 35
CC(C)(C)OC(=O)N1CCn2c(nc3c2C(c2ncc(C4CC4)cc2F)N(C(=O)COc2ccc(N4CCOCC4)nc2Cl)CC3)C1 (centres unmarked) [Example 5.4.1, tert-butyl 2-(2-((2-chloro-6-morpholinopyridin-3-yl)oxy)acetyl)-1-(5-cyclopropyl-3-fluoropyridin-2-yl)-1,2,3,4,8,9-hexahydropyrido[4′,3′:4,5]imidazo[1,2-a]pyrazine-7(6H)-carboxylate] | 77 | 
O=C(COc1cccnc1C(F)(F)F)N1CCc2nc3n(c2C1c1ncc(C2CC2)cc1F)CCNC3 (centres unmarked) [Example 5.4.2, 1-(1-(5-cyclopropyl-3-fluoropyridin-2-yl)-3,4,6,7,8,9-hexahydropyrido[4′,3′:4,5]imidazo[1,2-a]pyrazin-2(1H)-yl)-2-((2-(trifluoromethyl)pyridin-3-yl)oxy)ethanone] | 456 | 
O=C(COc1ccc(N2CCOCC2)nc1Cl)N1CCc2nc3n(c2C1c1ncc(C2CC2)cc1F)CCNC3 (centres unmarked) [Example 5.4.3, 2-((2-chloro-6-morpholinopyridin-3-yl)oxy)-1-(1-(5-cyclopropyl-3-fluoropyridin-2-yl)-3,4,6,7,8,9-hexahydropyrido[4′,3′:4,5]imidazo[1,2-a]pyrazin-2(1H)-yl)ethanone] | 20 | 
CCc1cc(F)ccc1OCC(=O)N1CCc2nc3n(c2C1c1ncc(C2CC2)cc1F)CCNC3 (centres unmarked) [Example 5.4.4, 1-(1-(5-cyclopropyl-3-fluoropyridin-2-yl)-3,4,6,7,8,9-hexahydropyrido[4′,3′:4,5]imidazo[1,2-a]pyrazin-2(1H)-yl)-2-(2-ethyl-4-fluorophenoxy)ethanone] | 329 | 
CCc1cc(Cl)ccc1OCC(=O)N1CCc2nc3n(c2C1c1ncc(C2CC2)cc1F)CCNC3 (centres unmarked) [Example 5.4.5, 2-(4-chloro-2-ethylphenoxy)-1-(1-(5-cyclopropyl-3-fluoropyridin-2-yl)-3,4,6,7,8,9-hexahydropyrido[4′,3′:4,5]imidazo[1,2-a]pyrazin-2(1H)-yl)ethanone] | 143 | 
CC(=O)N1CCn2c(nc3c2C(c2ncc(C4CC4)cc2F)N(C(=O)COc2ccc(N4CCOCC4)nc2Cl)CC3)C1 (centres unmarked) [Example 5.4.6, 1-(7-acetyl-1-(5-cyclopropyl-3-fluoropyridin-2-yl)-3,4,6,7,8,9-hexahydropyrido[4′,3′:4,5]imidazo[1,2-a]pyrazin-2(1H)-yl)-2-((2-chloro-6-morpholinopyridin-3-yl)oxy)ethanone] | 9 | 
CC(=O)N1CCn2c(nc3c2C(c2ncc(C4CC4)cc2F)N(C(=O)COc2cc(F)cnc2Cl)CC3)C1 (centres unmarked) [Example 5.4.7, 1-(7-acetyl-1-(5-cyclopropyl-3-fluoropyridin-2-yl)-3,4,6,7,8,9-hexahydropyrido[4′,3′:4,5]imidazo[1,2-a]pyrazin-2(1H)-yl)-2-((2-chloro-5-fluoropyridin-3-yl)oxy)ethanone] | 431 | 
CC(=O)N1CCn2c(nc3c2C(c2ncc(C4CC4)cc2F)N(C(=O)COc2ccc(N4CCOCC4)nc2F)CC3)C1 (centres unmarked) [Example 5.4.8, 1-(7-acetyl-1-(5-cyclopropyl-3-fluoropyridin-2-yl)-3,4,6,7,8,9-hexahydropyrido[4′,3′:4,5]imidazo[1,2-a]pyrazin-2(1H)-yl)-2-((2-fluoro-6-morpholinopyridin-3-yl)oxy)ethanone] | 91 | 
CC(=O)N1CCn2c(nc3c2C(c2ncc(C4CC4)cc2F)N(C(=O)COc2cc(F)c(N4CCOCC4)nc2Cl)CC3)C1 (centres unmarked) [Example 5.4.9, 1-(7-acetyl-1-(5-cyclopropyl-3-fluoropyridin-2-yl)-3,4,6,7,8,9-hexahydropyrido[4′,3′:4,5]imidazo[1,2-a]pyrazin-2(1H)-yl)-2-((2-chloro-5-fluoro-6-morpholinopyridin-3-yl)oxy)ethanone] | 15 | 
COC(=O)c1csc(C2c3c(nc4n3CCN(C(C)=O)C4)CCN2C(=O)COc2ccc(N3CCOCC3)nc2Cl)c1 (centres unmarked) [Example 5.5.1, methyl 5-(7-acetyl-2-(2-((2-chloro-6-morpholinopyridin-3-yl)oxy)acetyl)-1,2,3,4,6,7,8,9-octahydropyrido[4′,3′:4,5]imidazo[1,2-a]pyrazin-1-yl)thiophene-3-carboxylate] | 5 | 
